This note sets out measurements from US20180238860A1, “INDIVIDUAL METHOD PREDICTIVE OF THE DNA-BREAKING GENOTOXIC EFFECTS OF CHEMICAL OR BIOCHEMICAL AGENTS” (priority 2015, published 2018).

Common to all, as to assay type: cell-based, human
In data set [1] the test system is Hasp (spinal cord astrocyte cells). Put plainly: pH2AX foci 24 h after contacting, Hasp spinal cord astrocyte cells. As for the experimental part: (§1) In one embodiment, on receipt, the tissue sample (typically the biopsy) is established in the form of an amplifiable cell line without a viral or chemical transformation agent according to an ancillary procedure well known to culture laboratories, as underlined by the publication of Elkind et al. “The radiobiology of cultured mammalian cell”, Gordon and Breach (1967). Once the number of cells is sufficient (typically after 1 to 3 weeks), the first experiments are carried out using the process according to the invention. A cell sample is prepared: The cells are inoculated on glass coverslips in Petri dishes. A portion of these coverslips are contaminated with metals or pesticides or any other DNA-breaking chemical or biochemical agent at different concentrations. A further portion is not contaminated; it represents the spontaneous state. During contamination, the cells remain in the culture incubator at 37° C.
(§2) For the contaminated cells, characteristics are acquired corresponding to the state after an incubation time with the DNA-breaking chemical or biochemical agent. Said characteristics are represented by foci corresponding to the marker pH2AX. The cells on glass coverslips are then fixed, lysed and hybridized. The following procedure, known per se (Bodgi et al, “A single formula to describe radiation-induced protein relocalization: towards a mathematical definition of individual radiosensitivity”, J Theor Biol. 21 p 333:135-45.2013):
(§3) the cells are fixed in 3% paraformaldehyde and 2% sucrose for 15 minutes at ambient temperature and permeabilized in 20 mM HEPES buffer solution (4-(2-hydroxyethyl)-1-piperazine ethane sulfonic acid) at pH 7.4, 50 mM NaCl, 3 mM MgCl2, 300 mM sucrose, 0.5% Triton X-100 (a non-ionic surfactant having the formula t-Oct-C6H4-(OCH2CH2)×OH where x=9-10, CAS No. 9002-93-1, supplied for example by Sigma Aldrich) for 3 minutes. The glass coverslips are then washed in phosphate buffer saline (known as the acronym PBS) before immunological staining. The incubation took place for 40 min at 37° C. in PBS supplemented with 2% bovine serum albumin (known as the acronym BSA or fraction V, supplied for example by Sigma Aldrich) and was followed by a wash with PBS. Anti-pH2AX primary antibodies are used at a concentration of 1:800. The incubations with anti-mouse FITC or anti-rabbit TRITC secondary antibodies (1:100, supplied by Sigma Aldrich) were performed at 37° C. in 2% BSA for 20 minutes. Glass coverslips were treated with Vectashield™ containing DAPI (4,6-Diamidino-2-phenylindole) to label the nucleus. Staining with DAPI also makes it possible, indirectly, to determine the number of cells in phase G1 (nuclei with homogenous DAPI staining), in phase S (nuclei with numerous pH2AX foci), in phase G2 (nuclei with heterogeneous DAPI staining) and metaphases (visible chromosomes).
(§4) The results are acquired using these coverslips on an immunofluorescence microscope (Olympus model for example). The reading may be direct (typically by counting the foci on at least 50 cells in G0/G1 for each point) or using dedicated image analysis software, or on an automated microscope; preferably the software or automated microscope methods are calibrated with manual determinations.
(§5) The tables hereinafter summarize the results of numerous experiments which were carried out as described in the “Detailed description” section above.
(§6) In tables 3 and 4, “pH2AX” corresponds to the mean number of nuclear foci obtained with the marker pH2AX, 24 hours after contacting the cell sample with the chemical agent at the concentration C (NpH2AX(24 h, C)), and where “Micronuclei” corresponds to the mean number of micronuclei observed per 100 cells 24 hours after contacting the cell sample with the chemical agent at the concentration C(NMN(24 h, C)). […]

In data set [2] the test system is Hah (hippocampus astrocyte cells). The data set is described as follows: pH2AX foci 24 h after contacting, Hah hippocampus astrocyte cells. As for the experimental part: as §1, §2, §3, §4, §5, §6
In data set [3] the test system is HMEC cells. Put plainly: pH2AX foci 24 h after contacting, Table 4 lower part (HMEC endothelial cells). The conditions noted are these: for pH2AX: line cell blank (below Hasp), 24 hours after contacting. As to the method:
as §1, §2, §3, §4, §5
(§7) In tables 3 and 4, “pH2AX” corresponds to the mean number of nuclear foci obtained with the marker pH2AX, 24 hours after contacting the cell sample with the chemical agent at the concentration C (NpH2AX(24 h, C)), and where “Micronuclei” corresponds to the mean number of micronuclei observed per 100 cells 24 hours after contacting the cell sample with the chemical agent at the concentration C(NMN(24 h, C)).

Data set [4] concerns Hasp (spinal cord astrocyte cells). The data set is described as follows: Micronuclei per 100 cells 24 h after contacting, Hasp. As to the method: as §1, §3
(§8) Counterstaining with DAPI (a DNA marker known to those skilled in the art) makes it possible to locate the nucleus to situate the cytoplasmic or nuclear location to quantify the micronuclei, which are complementary cell markers to the data on the foci.
as §5, §7
(§9) Table 4 presents a detection of number of pH2AX foci and number of micronuclei 24 hours after contacting control nervous system cell lines Ha (astrocyte cells), Hah (hippocampus astrocyte cells) and Hasp (spinal cord astrocyte cells) with a metallic compound (AlCl3, Cu, CuCl2, CuSO4, Pb(NO3)2, CdCl2, Cd-acetate or Cd-acetate-citrate) according to the concentration of said metallic compound used.

In data set [5] the test system is HMEC cells. Put plainly: Micronuclei per 100 cells 24 h after contacting, Table 4 lower part (HMEC). The conditions noted are these: line cell blank (below Hasp). As to the method: as §1, §3, §8, §5, §7
The subject of data set [6] is Hah (hippocampus astrocyte cells). The data set is described as follows: Micronuclei per 100 cells 24 h after contacting, Hah. As for the experimental part: as §1, §3, §8, §5, §7, §9
The test system of data set [7] is Ha (astrocyte cells). Put plainly: Micronuclei per 100 cells 24 h after contacting, Ha astrocyte cells. As for the experimental part:
as §1, §3, §8, §5, §7, §9

Data set [8] relates to Ha (astrocyte cells). Put plainly: pH2AX foci 24 h after contacting, Ha astrocyte cells. The conditions noted are these: for pH2AX: Ha, 24 hours after contacting. As to the method: as §1, §2, §3, §4, §5, §6

In the case of `[Cl][Al]([Cl])[Cl]` [AlCl3], the pH2AX in data set [1] (3 μM) stood at 0.84 foci; in data set [1] (10 μM), 0.46 foci; in data set [1] (30 μM), 0.74 foci; in data set [1] (100 μM) it was 2.15 foci; in data set [1] (300 μM), 1.7 foci; in data set [1] (1000 μM), 1.62 foci. Further, the pH2AX in data set [2] (3 μM) was 0.07 foci; in data set [2] (10 μM), 0.68 foci; in data set [2] (30 μM), 0.83 foci; in data set [2] (100 μM), 1.22 foci; in data set [2] (300 μM), 1.77 foci; in data set [2] (1000 μM) it was 2.28 foci. The pH2AX came to 3.2 foci in the data set on HMEC cells [3] (3 μM); 3.2 foci with HMEC cells [3] (10 μM); 5.7 foci with HMEC cells [3] (30 μM); 3.7 foci in the data set with HMEC cells [3] (100 μM); 4.5 foci in the data set on HMEC cells [3] (300 μM); 9.9 foci in the data set with HMEC cells [3] (1000 μM). Also, the pH2AX in the data set with Ha (astrocyte cells) [8] (3 μM) is 0.34 foci; with Ha (astrocyte cells) [8] (10 μM), 0.88 foci; in the data set with Ha (astrocyte cells) [8] (30 μM) it was 1.37 foci; in the data set with Ha (astrocyte cells) [8] (100 μM), 2.18 foci; in the data set with Ha (astrocyte cells) [8] (300 μM) it was 2.96 foci; in the data set on Ha (astrocyte cells) [8] (1000 μM) it was 6.04 foci. Moreover, the H2AX foci with HMEC cells [3] (endothelial cells (HMEC cells), 100 μM) stood at 3.7 foci; in the data set on Ha (astrocyte cells) [8] (astrocytes (HA cells) contaminated with 100 μM), 2 foci. Also, the Micronuclei was determined as 2 per 100 cells in data set [4] (3 μM); 4 per 100 cells in data set [4] (10 μM); 4 per 100 cells in data set [4] (30 μM); 7.3 per 100 cells in data set [4] (100 μM); 8.7 per 100 cells in data set [4] (300 μM); 13 per 100 cells in data set [4] (1000 μM). Moreover, the Micronuclei came to 1.75 per 100 cells in the data set with HMEC cells [5] (3 μM); 3.75 per 100 cells with HMEC cells [5] (10 μM); 5 per 100 cells with HMEC cells [5] (30 μM); 4.33 per 100 cells in the data set on HMEC cells [5] (100 μM); 7.33 per 100 cells in the data set with HMEC cells [5] (300 μM); 11.5 per 100 cells in the data set with HMEC cells [5] (1000 μM). The Micronuclei in data set [6] (3 μM) is 2 per 100 cells; in data set [6] (10 μM), 2 per 100 cells; in data set [6] (30 μM), 4 per 100 cells; in data set [6] (100 μM), 6 per 100 cells; in data set [6] (300 μM) it was 20 per 100 cells; in data set [6] (1000 μM), 30 per 100 cells. Moreover, the Micronuclei in the data set with Ha (astrocyte cells) [7] (3 μM) was 10 per 100 cells; with Ha (astrocyte cells) [7] (10 μM), 15 per 100 cells; in the data set with Ha (astrocyte cells) [7] (30 μM), 16.7 per 100 cells; with Ha (astrocyte cells) [7] (100 μM), 46.7 per 100 cells; in the data set with Ha (astrocyte cells) [7] (300 μM), 56.7 per 100 cells; in the data set on Ha (astrocyte cells) [7] (1000 μM) it was 70 per 100 cells.

As to `CC(=O)[O-].CC(=O)[O-].[Cd+2]` [Cd-acetate], the values for the pH2AX in the data set with HMEC cells [3] (10 μM), in the data set with HMEC cells [3] (30 μM) and in the data set on HMEC cells [3] (100 μM) were 5 foci, 5.5 foci and 7 foci, respectively. Further, the Micronuclei in the data set on HMEC cells [5] (10 μM) was found to be 5 per 100 cells; with HMEC cells [5] (30 μM), 10 per 100 cells; with HMEC cells [5] (100 μM), 10 per 100 cells.

Regarding `[Cl][Cu][Cl]` [CuCl2], the pH2AX with HMEC cells [3] (3 μM) worked out at 1.6 foci; in the data set on HMEC cells [3] (10 μM), 1.9 foci; in the data set on HMEC cells [3] (30 μM) it was 1.6 foci; in the data set on HMEC cells [3] (100 μM) it was 1.5 foci; with HMEC cells [3] (300 μM) it was 5.3 foci; in the data set with HMEC cells [3] (1000 μM), 21.4 foci. Moreover, the Micronuclei in the data set on HMEC cells [5] (3 μM) is 4 per 100 cells; with HMEC cells [5] (10 μM) it was 6.7 per 100 cells; in the data set with HMEC cells [5] (30 μM), 5.3 per 100 cells; in the data set with HMEC cells [5] (100 μM), 6.7 per 100 cells; with HMEC cells [5] (300 μM), 7.3 per 100 cells; in the data set on HMEC cells [5] (1000 μM) it was 4 per 100 cells.

On to `O=S(=O)([O-])[O-].[Cu+2]` [CuSO4], for which the pH2AX stood at 1.9 foci in the data set on HMEC cells [3] (3 μM); 2.3 foci with HMEC cells [3] (10 μM); 3.4 foci in the data set with HMEC cells [3] (30 μM); 6.4 foci in the data set on HMEC cells [3] (100 μM); 20.1 foci in the data set with HMEC cells [3] (300 μM); 30.2 foci in the data set with HMEC cells [3] (1000 μM). Moreover, the Micronuclei was determined as 3 per 100 cells in the data set with HMEC cells [5] (3 μM); 5 per 100 cells in the data set with HMEC cells [5] (10 μM); 4.7 per 100 cells in the data set with HMEC cells [5] (30 μM); 5.3 per 100 cells in the data set with HMEC cells [5] (100 μM); 9.3 per 100 cells in the data set on HMEC cells [5] (300 μM); 4 per 100 cells in the data set on HMEC cells [5] (1000 μM).

In the case of `[Cu]` [Cu], the pH2AX is recorded as 0.29 foci in data set [1] (10 μM); 0.64 foci in data set [1] (30 μM); 1.13 foci in data set [1] (100 μM); 1.78 foci in data set [1] (300 μM); 2.36 foci in data set [1] (1000 μM); 1.01 foci in data set [2] (10 μM). Moreover, the pH2AX in data set [2] (30 μM) is on record as 1.87 foci; in data set [2] (100 μM) it was 2.62 foci; in data set [2] (300 μM) it was 5.45 foci; in data set [2] (1000 μM), 6.61 foci; in the data set on Ha (astrocyte cells) [8] (10 μM), 0.3 foci; in the data set with Ha (astrocyte cells) [8] (30 μM), 0.62 foci. Further, the pH2AX with Ha (astrocyte cells) [8] (100 μM) was found to be 2.55 foci; in the data set on Ha (astrocyte cells) [8] (300 μM), 0 foci; with Ha (astrocyte cells) [8] (1000 μM), 0 foci. Besides, the Micronuclei in data set [4] (10 μM) was determined as 4 per 100 cells; in data set [4] (30 μM), 7 per 100 cells; in data set [4] (100 μM) it was 9 per 100 cells; in data set [4] (300 μM), 10 per 100 cells; in data set [4] (1000 μM), 16 per 100 cells; in data set [6] (10 μM), 6 per 100 cells. In addition, the Micronuclei stood at 10.7 per 100 cells in data set [6] (30 μM); 20.7 per 100 cells in data set [6] (100 μM); 46.7 per 100 cells in data set [6] (300 μM); 73.3 per 100 cells in data set [6] (1000 μM); 4 per 100 cells with Ha (astrocyte cells) [7] (10 μM); 5 per 100 cells with Ha (astrocyte cells) [7] (30 μM). In addition, the Micronuclei in the data set on Ha (astrocyte cells) [7] (100 μM) is 13 per 100 cells; with Ha (astrocyte cells) [7] (300 μM), 20 per 100 cells; with Ha (astrocyte cells) [7] (1000 μM), 50 per 100 cells.

Regarding Cd-acetate-citrate, the figures for the pH2AX in the data set with HMEC cells [3] (10 μM), in the data set with HMEC cells [3] (30 μM) and in the data set with HMEC cells [3] (100 μM) were 1 foci, 4.75 foci and 7 foci, respectively.
